Source: ChEMBL document CHEMBL3046897, “Synthesis of 3-{4-[4-dimethylamino-6-(4-methyl-2-oxo-2H-chromen-7-yloxy)-[1,3,5]triazin-2-ylamino]-phenyl}-2-phenyl-5-(4-pyridin-2-yl-piperazin-1-ylmethyl)-thiazolidin-4-one and their biological evaluation” (2012)
Values after ≈ are worked out from the molar mass of the structure shown. Active and inactive are the calls of the source. No cut-off for these calls is given here.

Legend:
Escherichia coli [1] = experiment: Antibacterial activity against Escherichia coli after 24 hr by agar streak dilution method; format: functional
Candida albicans [2] = experiment: Antifungal activity against Candida albicans at 100 ug/disk after 48 hr by paper disk diffusion method; format: functional; conditions: read-out: IZ
Pseudomonas aeruginosa [3] = experiment: Antibacterial activity against Pseudomonas aeruginosa at 100 ug/disk after 24 hr by paper disk diffusion method; format: functional; conditions: read-out: IZ
Shigella flexneri [4] = experiment: Antibacterial activity against Shigella flexneri after 24 hr by agar streak dilution method; format: functional
Staphylococcus aureus [5] = experiment: Antibacterial activity against Staphylococcus aureus at 100 ug/disc after 24 hr by paper disk diffusion method; format: functional; conditions: read-out: IZ
Aspergillus niger [6] = experiment: Antifungal activity against Aspergillus niger at 100 ug/disk after 48 hr by paper disk diffusion method; format: functional; conditions: read-out: IZ
Shigella flexneri [7] = experiment: Antibacterial activity against Shigella flexneri at 100 ug/disc after 24 hr by paper disk diffusion method; format: functional; conditions: read-out: IZ
Klebsiella pneumoniae [8] = experiment: Antibacterial activity against Klebsiella pneumoniae after 24 hr by agar streak dilution method; format: functional
Proteus vulgaris [9] = experiment: Antibacterial activity against Proteus vulgaris at 100 ug/disk after 24 hr by paper disk diffusion method; format: functional; conditions: read-out: IZ
Aspergillus fumigatus [10] = experiment: Antifungal activity against Aspergillus fumigatus at 100 ug/disc after 48 hr by paper disk diffusion method; format: functional; conditions: read-out: IZ
Bacillus subtilis [11] = experiment: Antibacterial activity against Bacillus subtilis at 100 ug/disk after 24 hr by paper disk diffusion method; format: functional; conditions: read-out: IZ
Aspergillus clavatus [12] = experiment: Antifungal activity against Aspergillus clavatus at 100 ug/disc after 48 hr by paper disk diffusion method; format: functional; conditions: read-out: IZ
Staphylococcus aureus [13] = experiment: Antibacterial activity against Staphylococcus aureus after 24 hr by agar streak dilution method; format: functional
Aspergillus clavatus [14] = experiment: Antifungal activity against Aspergillus clavatus after 48 hr by agar streak dilution method; format: functional
Escherichia coli [15] = experiment: Antibacterial activity against Escherichia coli at 100 ug/disk after 24 hr by paper disk diffusion method; format: functional; conditions: read-out: IZ
Aspergillus niger [16] = experiment: Antifungal activity against Aspergillus niger after 48 hr by agar streak dilution method; format: functional
Aspergillus fumigatus [17] = experiment: Antifungal activity against Aspergillus fumigatus after 48 hr by agar streak dilution method; format: functional
Bacillus subtilis [18] = experiment: Antibacterial activity against Bacillus subtilis after 24 hr by agar streak dilution method; format: functional
Salmonella typhi [19] = experiment: Antibacterial activity against Salmonella enterica subsp. enterica serovar Typhi at 100 ug/disk after 24 hr by paper disk diffusion method; format: functional; conditions: read-out: IZ
Klebsiella pneumoniae [20] = experiment: Antibacterial activity against Klebsiella pneumoniae at 100 ug/disk after 24 hr by paper disk diffusion method; format: functional; conditions: read-out: IZ
Salmonella typhi [21] = experiment: Antibacterial activity against Salmonella enterica subsp. enterica serovar Typhi after 24 hr by agar streak dilution method; format: functional
Pseudomonas aeruginosa [22] = experiment: Antibacterial activity against Pseudomonas aeruginosa after 24 hr by agar streak dilution method; format: functional
Candida albicans [23] = experiment: Antifungal activity against Candida albicans after 48 hr by agar streak dilution method; format: functional
Proteus vulgaris [24] = experiment: Antibacterial activity against Proteus vulgaris after 24 hr by agar streak dilution method; format: functional
Candida albicans [25] = experiment: Antifungal activity against Candida albicans at 100 ug/ml after 48 hr by agar streak dilution method; format: functional, organism-based

Row | SMILES | MIC (Escherichia coli [1]) [mg/L] | zone of inhibition at 100 µg/disc (Pseudomonas aeruginosa [3]) [mm] | MIC (Shigella flexneri [4]) [mg/L] | zone of inhibition at 100 µg/disc (Staphylococcus aureus [5]) [mm] | zone of inhibition at 100 µg/disc (Aspergillus niger [6]) [mm] | zone of inhibition at 100 µg/disc (Shigella flexneri [7]) [mm] | MIC (Klebsiella pneumoniae [8]) [mg/L] | zone of inhibition at 100 µg/disc (Proteus vulgaris [9]) [mm] | zone of inhibition at 100 µg/disc (Aspergillus fumigatus [10]) [mm] | zone of inhibition at 100 µg/disc (Bacillus subtilis [11]) [mm] | zone of inhibition at 100 µg/disc (Aspergillus clavatus [12]) [mm] | MIC (Staphylococcus aureus [13]) [mg/L] | MIC (Aspergillus clavatus [14]) [mg/L] | zone of inhibition at 100 µg/disc (Escherichia coli [15]) [mm] | MIC (Aspergillus niger [16]) [mg/L] | MIC (Aspergillus fumigatus [17]) [mg/L] | MIC (Bacillus subtilis [18]) [mg/L] | zone of inhibition at 100 µg/disc (Salmonella typhi [19]) [mm] | zone of inhibition at 100 µg/disc (Klebsiella pneumoniae [20]) [mm] | MIC (Salmonella typhi [21]) [mg/L] | further results
1 | Cc1cc(=O)oc2cc(Oc3nc(Nc4ccc(N5C(=O)CSC5c5ccc(Cl)c(Cl)c5)cc4)nc(N(C)C)n3)ccc12 (configuration not stated) | 100 (≈ 157 µM) | 19 | 50 (≈ 78.7 µM) | 16 | 12 | 18 | 100 (≈ 157 µM) | 17 | 15 | 18 | 18 | 100 (≈ 157 µM) | 50 (≈ 78.7 µM) | 14 | 100 (≈ 157 µM) | 100 (≈ 157 µM) | 50 (≈ 78.7 µM) | 18 | 15 | 50 (≈ 78.7 µM) | zone of inhibition at 100 µg/disc (Candida albicans [2]): 13 mm; MIC (Pseudomonas aeruginosa [22]): 50 mg/L (≈ 78.7 µM); MIC (Candida albicans [23]): 100 mg/L (≈ 157 µM); MIC (Proteus vulgaris [24]): 100 mg/L (≈ 157 µM)
2 | Cc1cc(=O)oc2cc(Oc3nc(Nc4ccc(N5C(=O)CSC5c5cccc(F)c5)cc4)nc(N(C)C)n3)ccc12 (configuration not stated) | 25 (≈ 42.8 µM) | 19 | 25 (≈ 42.8 µM) | 17 | 20 | 22 | 50 (≈ 85.5 µM) | 17 | 17 | 19 | 21 | 50 (≈ 85.5 µM) | 25 (≈ 42.8 µM) | 23 | 25 (≈ 42.8 µM) | 50 (≈ 85.5 µM) | 50 (≈ 85.5 µM) | 20 | 18 | 25 (≈ 42.8 µM) | zone of inhibition at 100 µg/disc (Candida albicans [2]): 18 mm; MIC (Pseudomonas aeruginosa [22]): 50 mg/L (≈ 85.5 µM); MIC (Candida albicans [23]): 50 mg/L (≈ 85.5 µM); MIC (Proteus vulgaris [24]): 50 mg/L (≈ 85.5 µM)
3 | Cc1cc(=O)oc2cc(Oc3nc(Nc4ccc(N5C(=O)C(CN6CCN(c7ccccn7)CC6)SC5c5ccc(Cl)cc5Cl)cc4)nc(N(C)C)n3)ccc12 (configuration not stated) | 25 (≈ 30.8 µM) | 18 | 25 (≈ 30.8 µM) | 22 | 18 | 20 | 25 (≈ 30.8 µM) | 21 | 19 | 23 | 23 | 25 (≈ 30.8 µM) | 25 (≈ 30.8 µM) | 19 | 50 (≈ 61.7 µM) | 50 (≈ 61.7 µM) | 12.5 (≈ 15.4 µM) | 18 | 21 | 50 (≈ 61.7 µM) | zone of inhibition at 100 µg/disc (Candida albicans [2]): 20 mm; MIC (Pseudomonas aeruginosa [22]): 50 mg/L (≈ 61.7 µM); MIC (Candida albicans [23]): 50 mg/L (≈ 61.7 µM); MIC (Proteus vulgaris [24]): 12.5 mg/L (≈ 15.4 µM)
4 | Cc1cc(=O)oc2cc(Oc3nc(Nc4ccc(N5C(=O)CSC5c5ccccc5C(=O)O)cc4)nc(N(C)C)n3)ccc12 (configuration not stated) | 100 (≈ 164 µM) | 14 | 100 (≈ 164 µM) | 16 | 12 | 14 | 100 (≈ 164 µM) | 11 | 10 | 14 | 13 | 100 (≈ 164 µM) | 100 (≈ 164 µM) | < 10 | 100 (≈ 164 µM) | 100 (≈ 164 µM) | 100 (≈ 164 µM) | < 10 | 12 | 100 (≈ 164 µM) | Activity (Candida albicans [25]): inactive; MIC (Pseudomonas aeruginosa [22]): 100 mg/L (≈ 164 µM); MIC (Proteus vulgaris [24]): 100 mg/L (≈ 164 µM)
5 | Cc1cc(=O)oc2cc(Oc3nc(Nc4ccc(N5C(=O)C(CN6CCN(c7ccccn7)CC6)SC5c5ccccc5C(=O)O)cc4)nc(N(C)C)n3)ccc12 (configuration not stated) | 100 (≈ 127 µM) | 18 | 100 (≈ 127 µM) | 19 | 15 | 17 | 100 (≈ 127 µM) | 15 | 13 | 17 | 15 | 50 (≈ 63.6 µM) | 100 (≈ 127 µM) | 13 | 100 (≈ 127 µM) | 100 (≈ 127 µM) | 50 (≈ 63.6 µM) | 11 | 15 | 100 (≈ 127 µM) | zone of inhibition at 100 µg/disc (Candida albicans [2]): < 10 mm; MIC (Pseudomonas aeruginosa [22]): 50 mg/L (≈ 63.6 µM); MIC (Candida albicans [23]): 100 mg/L (≈ 127 µM); MIC (Proteus vulgaris [24]): 100 mg/L (≈ 127 µM)
6 | Cc1cc(=O)oc2cc(Oc3nc(Nc4ccc(N5C(=O)CSC5c5ccc(F)cc5)cc4)nc(N(C)C)n3)ccc12 (configuration not stated) | 50 (≈ 85.5 µM) | 22 | 50 (≈ 85.5 µM) | 23 | 25 | 18 | 100 (≈ 171 µM) | 20 | 18 | 20 | 22 | 25 (≈ 42.8 µM) | 25 (≈ 42.8 µM) | 17 | 12.5 (≈ 21.4 µM) | 50 (≈ 85.5 µM) | 25 (≈ 42.8 µM) | 17 | 15 | 50 (≈ 85.5 µM) | zone of inhibition at 100 µg/disc (Candida albicans [2]): 24 mm; MIC (Pseudomonas aeruginosa [22]): 25 mg/L (≈ 42.8 µM); MIC (Candida albicans [23]): 12.5 mg/L (≈ 21.4 µM); MIC (Proteus vulgaris [24]): 25 mg/L (≈ 42.8 µM)
7 | Cc1cc(=O)oc2cc(Oc3nc(Nc4ccc(/N=C/c5ccc(Cl)c(Cl)c5)cc4)nc(N(C)C)n3)ccc12 | 100 (≈ 178 µM) | 16 | 100 (≈ 178 µM) | 13 | < 10 | 15 | 100 (≈ 178 µM) | 12 | 12 | 15 | 15 | 100 (≈ 178 µM) | 100 (≈ 178 µM) | 11 | 100 (≈ 178 µM) | 100 (≈ 178 µM) | 100 (≈ 178 µM) | 14 | 12 | 100 (≈ 178 µM) | zone of inhibition at 100 µg/disc (Candida albicans [2]): 10 mm; MIC (Pseudomonas aeruginosa [22]): 50 mg/L (≈ 89.1 µM); MIC (Candida albicans [23]): 100 mg/L (≈ 178 µM); MIC (Proteus vulgaris [24]): 100 mg/L (≈ 178 µM)
